# From PMC5565203 (Journal of medicinal chemistry, 2015)
# “Also recorded” adds a separate entry of the source.
# How the values were obtained:
# human Mcl-1 = human Mcl-1 (Homo sapiens, UniProt Q07820); assay: FPA competition assay, displacement of FITC-Bak-BH3 peptide from Mcl-1; type: binding; settings: for LE (ligand efficiency): binding to Mcl-1; for higher Mcl-1 Ki values compared to the corresponding four-atom linker analogs: three-atom linker compounds; for increased affinity for Mcl-1 compared to the initial fragment 2: four-atom linker compounds; for improvement in Mcl-1 affinity compared to the core fragment 3: compared to fragment 3
# Chain of human Mcl-1 (Q07820 172-327): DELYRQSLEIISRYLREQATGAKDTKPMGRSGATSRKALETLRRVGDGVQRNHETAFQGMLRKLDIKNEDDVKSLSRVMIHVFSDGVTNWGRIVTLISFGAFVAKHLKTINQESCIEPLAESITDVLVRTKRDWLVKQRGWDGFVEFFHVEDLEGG
# cellular Mcl-1 = cellular Mcl-1 (Homo sapiens, UniProt Q07820); assay: Biotin streptavidin pull-down experiment in K562 cell lysates; type: binding; settings: Western blot
# Chain of cellular Mcl-1 (Q07820 whole entry): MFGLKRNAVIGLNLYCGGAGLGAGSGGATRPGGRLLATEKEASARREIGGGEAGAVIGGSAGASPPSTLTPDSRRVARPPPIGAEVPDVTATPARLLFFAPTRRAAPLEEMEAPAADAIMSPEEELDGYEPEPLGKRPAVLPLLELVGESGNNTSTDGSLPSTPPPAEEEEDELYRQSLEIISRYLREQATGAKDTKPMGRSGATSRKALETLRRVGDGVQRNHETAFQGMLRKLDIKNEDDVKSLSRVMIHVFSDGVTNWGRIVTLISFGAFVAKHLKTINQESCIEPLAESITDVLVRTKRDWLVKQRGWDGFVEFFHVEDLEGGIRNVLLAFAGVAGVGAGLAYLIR
structure (smiles),measurement,setting,value
CC1Cn2c(C(=O)O)cc3cccc(c32)S1 (stereo not shown) [Compound 2],LE (ligand efficiency),human Mcl-1,0.38
O=C(O)c1cc2cccc3c2n1CCS3 [Compound 3],LE (ligand efficiency),human Mcl-1,0.39
O=C(O)c1cc2cccc3c2n1CCC3 [Compound 4],LE (ligand efficiency),human Mcl-1,0.35
"Cc1c(C(=O)O)n2c3c(cccc13)SCC2 [Compound 5, 6-Methyl-2,3-dihydro-[1,4]thiazino[2,3,4-hi]indole-5-carboxylic acid]",LE (ligand efficiency),human Mcl-1,0.41
"Cc1c(C(=O)O)n2c3c(cccc13)CCC2 [Compound 6, 1-Methyl-5,6-dihydro-4H-pyrrolo[3,2,1-ij]quinoline-2-carboxylic acid]",LE (ligand efficiency),human Mcl-1,0.35
"Cc1c(C(=O)O)n2c3c(cccc13)OCC2 [Compound 7, 6-Methyl-2,3-dihydro-[1,4]oxazino[2,3,4-hi]indole-5-carboxylic acid]",LE (ligand efficiency),human Mcl-1,0.41
"O=C(O)c1c(CCOc2cccc3ccccc23)c2cccc3c2n1CCS3 [Compound 16, 6-(2-(Naphthalen-1-yloxy)ethyl)-2,3-dihydro-[1,4]thiazino[2,3,4-hi]indole-5-carboxylic acid]",higher Mcl-1 Ki values compared to the corresponding four-atom linker analogs,human Mcl-1,> 10 fold
"O=C(O)c1c(CCOc2cccc3ccccc23)c2cccc3c2n1CCC3 [Compound 17, 1-(2-(Naphthalen-1-yloxy)ethyl)-5,6-dihydro-4H-pyrrolo[3,2,1-ij]quinoline-2-carboxylic acid]",higher Mcl-1 Ki values compared to the corresponding four-atom linker analogs,human Mcl-1,> 10 fold
"O=C(O)c1c(CCOc2cccc3ccccc23)c2cccc3c2n1CCO3 [Compound 18, 6-(2-(Naphthalen-1-yloxy)ethyl)-2,3-dihydro-[1,4]oxazino[2,3,4-hi]indole-5-carboxylic acid]",higher Mcl-1 Ki values compared to the corresponding four-atom linker analogs,human Mcl-1,> 10 fold
"O=C(O)c1c(CCCOc2cccc3ccccc23)c2cccc3c2n1CCS3 [Compound 19, 6-(3-(Naphthalen-1-yloxy)propyl)-2,3-dihydro-[1,4]thiazino[2,3,4-hi]indole-5-carboxylic acid]",increased affinity for Mcl-1 compared to the initial fragment 2,human Mcl-1,more than 2 orders of magnitude
"O=C(O)c1c(CCCOc2cccc3ccccc23)c2cccc3c2n1CCC3 [Compound 20, 1-(3-(Naphthalen-1-yloxy)propyl)-5,6-dihydro-4H-pyrrolo[3,2,1-ij]quinoline-2-carboxylic acid]",increased affinity for Mcl-1 compared to the initial fragment 2,human Mcl-1,more than 2 orders of magnitude
"O=C(O)c1c(CCCOc2cccc3ccccc23)c2cccc3c2n1CCO3 [Compound 21, 6-(3-(Naphthalen-1-yloxy)propyl)-2,3-dihydro-[1,4]oxazino[2,3,4-hi]indole-5-carboxylic acid]",increased affinity for Mcl-1 compared to the initial fragment 2,human Mcl-1,more than 2 orders of magnitude
"O=C(O)c1c(CCCOc2ccc3c(c2)CCCC3)c2cccc3c2n1CCS3 [Compound 28, 6-(3-((5,6,7,8-Tetrahydronaphthalen-2-yl)oxy)propyl)-2,3-dihydro-[1,4]thiazino[2,3,4-hi]indole-5-carboxylic acid]",reduction in affinity to Mcl-1,human Mcl-1; compared to regioisomer 26 and 1-naphthyl analog 19,3 fold
"Cc1cc(OCCCc2c(C(=O)O)n3c4c(cccc24)SCC3)ccc1Cl [Compound 29, 6-(3-(4-Chloro-3-methylphenoxy)propyl)-2,3-dihydro-[1,4]thiazino[2,3,4-hi]indole-5-carboxylic acid]",improvement in Mcl-1 affinity compared to the core fragment 3,human Mcl-1,240 fold
"Cc1cc(OCCCc2c(C(=O)O)n3c4c(cccc24)SCC3)cc(C)c1Cl [Compound 30, 6-(3-(4-chloro-3,5-dimethylphenoxy)propyl)-2,3-dihydro-[1,4]thiazino[2,3,4-hi]indole-5-carboxylic acid]",improvement in Mcl-1 affinity compared to the core fragment 3,human Mcl-1,720 fold
"Cc1cc(OCCCc2c(C(=O)O)n3c4c(c(Cl)ccc24)CCC3)cc(C)c1Cl [Compound 34, 7-chloro-1-(3-(4-chloro-3,5-dimethylphenoxy)propyl)-5,6-dihydro-4H-pyrrolo[3,2,1-ij]quinoline-2-carboxylic acid]",inhibition of biotin-MS-1 pulldown of cellular Mcl-1,cellular Mcl-1,blocks the interaction with biotin MS-1 in a dose-dependent manner; also recorded: inhibits binding of biotin-MS-1 to Mcl-1 in cell lysates
